Data reported in patent publication US6562874B1, “Compositions comprising combination of DEFI and modified DEFI and methods of making” (Unilever Home & Personal Care USA division of Conopco, Inc., priority 1999, dated 2003).

What was measured:
zein protein = assay: Mildness (Zein solubilization), standard Zein assay; conditions: Table 5; 1% aqueous solution, 1.5 g zein, one hour
Description: Mildness (Zein Solubilization)
This test is based on the correlation noted between the amount of zein solubilized by an aqueous surfactant solution and its irritancy; the more zein a surfactant dissolves, the greater its intrinsic irritation potential. The procedure is conducted gravimetrically: a 1% aqueous solution of surfactant mixture is added to 1.5 g of zein protein and this mixture is allowed to stir at a constant rate for one hour. This mixture is then centrifuged (for approximately 25 minutes at 4000 rpm) and the undissolved zein is isolated, rinsed and allowed to dry in a vacuum over at 60° C. to constant weight. The zein solubilized is determined by difference.

[1] = Foaming protocol for Examples 26-36, 250 mL graduated cylinder; assay type: physicochemical; conditions: Table 5, 1 g in 20 mL water, 250 mL cylinder, shaken 60 seconds
Description: Protocol for Examples 26-36
One gram of final active mix is placed in a 250 mL glass-stoppered graduated cylinder and dispersed in 20 mL of distilled, de-ionized water; it is heated to 45° C. in a water bath until the temperature of the dispersion is at equilibrium. (note: For measurements done at 20° C., the water bath is set to 20° C. and the same procedure is followed). The sealed cylinder is then shaken vigorously for 60 seconds after which time the foam volume is measured in mL and recorded.

[2] = Foaming measurement protocol (Examples 1-25), 100 mL graduated cylinder; assay type: physicochemical; conditions: 1 g active mix in 20 mL water, 45° C., shaken 60 seconds, 100 mL cylinder
Description: Foaming Measurement Protocol (Examples 1-25)
One gram of final active mix is placed in a 100 mL glass stoppered graduated cylinder and dispersed in 20 mL of distilled de-ionized water; it is heated to 45° C. in a water bath until the temperature of the dispersion is at equilibrium. The sealed cylinder is then shaken vigorously for 60 seconds after which time the foam volume is measured in mL and recorded.

Zein (zein protein) | Foam at 20° C. ([1]; 20° C.) | Foam at 45° C. ([1]; 45° C.) | Foam Vol. ([2]; Table 1) | Foam Vol. ([2]; Table 2) | Substance
50.0% | 122 mL | 135 mL | – | – | Coco N-Methyl Taurate
– | – | – | 89.5 mL | 95 mL | sodium lauroyl isethionate [SLI - Control]
